Assays:
[1] = tested on: Phosphatidylinositol 4,5-bisphosphate 3-kinase catalytic subunit alpha isoform (Homo sapiens), P42336 [H1047L]; assay: Inhibition of PIK3CA H1047L mutant (unknown origin) assessed as residual activity at 1000 nM by KINOMEscan analysis relative to control
[2] = biological target: Serine/threonine-protein kinase RIO2 (Homo sapiens) (UniProt Q9BVS4); assay: Inhibition of RIOK2 (unknown origin) assessed as residual activity at 1000 nM by KINOMEscan analysis relative to control
Serine/threonine-protein kinase RIO2 (Homo sapiens), sequence (Q9BVS4 whole entry, looked up): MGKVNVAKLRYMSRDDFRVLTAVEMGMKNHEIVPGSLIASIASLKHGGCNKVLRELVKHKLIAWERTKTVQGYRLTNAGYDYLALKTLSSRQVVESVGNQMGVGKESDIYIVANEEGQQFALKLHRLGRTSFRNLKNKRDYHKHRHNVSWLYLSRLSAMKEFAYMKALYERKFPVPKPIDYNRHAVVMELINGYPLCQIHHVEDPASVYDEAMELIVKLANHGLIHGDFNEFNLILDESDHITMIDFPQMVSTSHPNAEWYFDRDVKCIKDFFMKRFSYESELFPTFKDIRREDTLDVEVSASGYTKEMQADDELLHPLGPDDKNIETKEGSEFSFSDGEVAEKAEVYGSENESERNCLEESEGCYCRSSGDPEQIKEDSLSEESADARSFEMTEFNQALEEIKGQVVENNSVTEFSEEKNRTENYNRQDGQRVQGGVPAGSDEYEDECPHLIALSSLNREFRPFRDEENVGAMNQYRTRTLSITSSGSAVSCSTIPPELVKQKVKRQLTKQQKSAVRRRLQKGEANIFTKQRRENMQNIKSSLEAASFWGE

Homo sapiens = organism: Homo sapiens; assay: Inhibition of PIP5K1C (unknown origin) assessed as residual activity at 1000 nM by KINOMEscan analysis relative to control
[3] = biological target: Mitogen-activated protein kinase kinase kinase kinase 5 (Homo sapiens) (UniProt Q9Y4K4); assay: Inhibition of MAP4K5 (unknown origin) assessed as residual activity at 1000 nM by KINOMEscan analysis relative to control
Mitogen-activated protein kinase kinase kinase kinase 5 (Homo sapiens), sequence (Q9Y4K4 whole entry, looked up): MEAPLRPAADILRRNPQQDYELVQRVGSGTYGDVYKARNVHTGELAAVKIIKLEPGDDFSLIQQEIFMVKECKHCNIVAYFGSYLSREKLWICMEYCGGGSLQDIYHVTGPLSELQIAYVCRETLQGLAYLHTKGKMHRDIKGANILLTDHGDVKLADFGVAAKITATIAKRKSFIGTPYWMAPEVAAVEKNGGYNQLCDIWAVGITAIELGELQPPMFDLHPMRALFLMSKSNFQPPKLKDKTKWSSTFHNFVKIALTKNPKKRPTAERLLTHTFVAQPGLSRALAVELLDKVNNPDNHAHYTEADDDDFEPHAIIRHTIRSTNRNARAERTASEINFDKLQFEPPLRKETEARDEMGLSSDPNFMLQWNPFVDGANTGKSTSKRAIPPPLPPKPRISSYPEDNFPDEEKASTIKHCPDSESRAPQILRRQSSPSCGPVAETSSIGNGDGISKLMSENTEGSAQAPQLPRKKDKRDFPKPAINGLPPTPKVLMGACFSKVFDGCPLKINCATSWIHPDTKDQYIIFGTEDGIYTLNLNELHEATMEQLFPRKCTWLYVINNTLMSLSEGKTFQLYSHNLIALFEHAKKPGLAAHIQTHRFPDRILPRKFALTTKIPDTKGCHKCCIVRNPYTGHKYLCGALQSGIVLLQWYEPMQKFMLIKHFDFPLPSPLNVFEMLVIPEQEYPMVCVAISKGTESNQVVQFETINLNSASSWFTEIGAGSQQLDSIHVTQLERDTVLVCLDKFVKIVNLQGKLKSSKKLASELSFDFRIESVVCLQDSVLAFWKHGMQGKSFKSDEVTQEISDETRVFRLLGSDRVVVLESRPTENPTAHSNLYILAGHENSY

[4] = biological target: Serine/threonine-protein kinase 26 (Homo sapiens) (UniProt Q9P289); assay: Inhibition of MST4 (unknown origin) assessed as residual activity at 1000 nM by KINOMEscan analysis relative to control
Serine/threonine-protein kinase 26 (Homo sapiens), sequence (Q9P289 2-416 limits assumed): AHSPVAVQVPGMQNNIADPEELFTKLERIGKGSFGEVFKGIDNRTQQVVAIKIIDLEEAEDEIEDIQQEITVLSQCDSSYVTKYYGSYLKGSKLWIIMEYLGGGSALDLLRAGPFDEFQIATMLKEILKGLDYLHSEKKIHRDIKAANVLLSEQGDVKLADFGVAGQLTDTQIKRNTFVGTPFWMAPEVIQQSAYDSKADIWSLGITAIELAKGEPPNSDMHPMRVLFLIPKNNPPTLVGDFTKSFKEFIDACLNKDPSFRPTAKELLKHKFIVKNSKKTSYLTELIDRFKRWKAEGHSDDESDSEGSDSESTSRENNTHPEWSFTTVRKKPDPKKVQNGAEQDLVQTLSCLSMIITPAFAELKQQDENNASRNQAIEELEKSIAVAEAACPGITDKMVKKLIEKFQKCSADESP

[5] = biological target: T1, Protein kinase C iota type (Homo sapiens) (UniProt P41743); assay: Inhibition of PRKCI (unknown origin) assessed as residual activity at 1000 nM by KINOMEscan analysis relative to control
T1 sequence (whole entry): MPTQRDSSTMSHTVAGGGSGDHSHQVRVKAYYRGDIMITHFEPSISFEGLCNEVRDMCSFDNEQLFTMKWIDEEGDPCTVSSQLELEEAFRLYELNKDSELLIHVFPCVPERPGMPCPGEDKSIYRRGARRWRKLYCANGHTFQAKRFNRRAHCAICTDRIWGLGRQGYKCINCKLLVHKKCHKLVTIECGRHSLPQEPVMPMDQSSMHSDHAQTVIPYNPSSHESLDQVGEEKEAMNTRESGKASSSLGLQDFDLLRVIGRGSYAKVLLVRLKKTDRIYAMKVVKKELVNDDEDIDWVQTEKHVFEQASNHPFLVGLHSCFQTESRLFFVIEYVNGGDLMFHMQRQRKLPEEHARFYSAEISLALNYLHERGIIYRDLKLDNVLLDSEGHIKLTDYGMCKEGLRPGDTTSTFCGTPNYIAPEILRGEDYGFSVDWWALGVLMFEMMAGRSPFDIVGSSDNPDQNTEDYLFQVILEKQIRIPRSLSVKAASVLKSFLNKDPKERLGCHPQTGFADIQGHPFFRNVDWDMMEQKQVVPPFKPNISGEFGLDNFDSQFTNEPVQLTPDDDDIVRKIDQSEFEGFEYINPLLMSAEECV

[6] = biological target: LIM domain kinase 1 (Homo sapiens) (UniProt P53667); assay: Inhibition of LIMK1 (unknown origin) assessed as residual activity at 1000 nM by KINOMEscan analysis relative to control
LIM domain kinase 1 (Homo sapiens), sequence (P53667 whole entry, looked up, the tested form may be a part): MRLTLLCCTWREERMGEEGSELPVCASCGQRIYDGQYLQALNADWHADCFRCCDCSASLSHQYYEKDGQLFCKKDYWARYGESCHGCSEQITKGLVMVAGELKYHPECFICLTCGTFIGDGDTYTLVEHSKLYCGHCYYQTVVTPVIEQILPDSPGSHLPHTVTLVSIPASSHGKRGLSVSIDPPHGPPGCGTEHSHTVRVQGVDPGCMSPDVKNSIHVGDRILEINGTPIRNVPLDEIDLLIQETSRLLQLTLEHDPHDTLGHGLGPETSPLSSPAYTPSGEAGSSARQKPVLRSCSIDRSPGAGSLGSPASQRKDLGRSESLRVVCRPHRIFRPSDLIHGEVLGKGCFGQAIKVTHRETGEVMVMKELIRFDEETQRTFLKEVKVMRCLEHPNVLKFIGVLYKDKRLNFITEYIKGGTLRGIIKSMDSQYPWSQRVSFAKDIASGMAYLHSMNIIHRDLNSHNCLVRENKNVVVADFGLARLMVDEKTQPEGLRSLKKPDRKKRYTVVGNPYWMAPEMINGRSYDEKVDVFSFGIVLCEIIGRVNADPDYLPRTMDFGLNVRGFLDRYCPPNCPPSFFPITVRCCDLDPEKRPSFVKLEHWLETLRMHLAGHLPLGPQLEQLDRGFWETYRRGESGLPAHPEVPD

[7] = tested on: Hepatocyte growth factor receptor (Homo sapiens), P08581 [Y1235D]; assay: Inhibition of MET Y1235D mutant (unknown origin) assessed as residual activity at 1000 nM by KINOMEscan analysis relative to control
[8] = biological target: Serine/threonine-protein kinase PAK 4 (Homo sapiens) (UniProt O96013); assay: Inhibition of PAK4 (unknown origin) assessed as residual activity at 1000 nM by KINOMEscan analysis relative to control
Serine/threonine-protein kinase PAK 4 (Homo sapiens), sequence (O96013 whole entry, looked up): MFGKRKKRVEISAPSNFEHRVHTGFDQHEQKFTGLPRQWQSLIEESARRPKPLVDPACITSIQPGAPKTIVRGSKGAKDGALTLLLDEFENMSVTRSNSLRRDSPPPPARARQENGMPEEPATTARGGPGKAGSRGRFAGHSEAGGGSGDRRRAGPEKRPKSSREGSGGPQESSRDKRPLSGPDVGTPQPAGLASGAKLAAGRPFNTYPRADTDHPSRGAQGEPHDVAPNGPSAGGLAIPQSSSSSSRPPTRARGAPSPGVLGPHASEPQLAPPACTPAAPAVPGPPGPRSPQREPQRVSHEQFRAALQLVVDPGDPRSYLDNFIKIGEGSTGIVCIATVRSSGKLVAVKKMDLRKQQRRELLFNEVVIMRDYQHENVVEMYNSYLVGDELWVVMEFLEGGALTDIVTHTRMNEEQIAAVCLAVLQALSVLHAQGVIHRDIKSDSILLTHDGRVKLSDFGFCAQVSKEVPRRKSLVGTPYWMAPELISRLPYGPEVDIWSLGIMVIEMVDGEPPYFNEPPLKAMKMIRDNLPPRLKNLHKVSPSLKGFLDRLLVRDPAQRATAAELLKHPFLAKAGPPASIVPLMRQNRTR

[9] = biological target: T2, Serine/threonine-protein kinase DCLK3 (Homo sapiens) (UniProt Q9C098); assay: Inhibition of DCAMKL3 (unknown origin) assessed as residual activity at 1000 nM by KINOMEscan analysis relative to control
T2 sequence (whole entry): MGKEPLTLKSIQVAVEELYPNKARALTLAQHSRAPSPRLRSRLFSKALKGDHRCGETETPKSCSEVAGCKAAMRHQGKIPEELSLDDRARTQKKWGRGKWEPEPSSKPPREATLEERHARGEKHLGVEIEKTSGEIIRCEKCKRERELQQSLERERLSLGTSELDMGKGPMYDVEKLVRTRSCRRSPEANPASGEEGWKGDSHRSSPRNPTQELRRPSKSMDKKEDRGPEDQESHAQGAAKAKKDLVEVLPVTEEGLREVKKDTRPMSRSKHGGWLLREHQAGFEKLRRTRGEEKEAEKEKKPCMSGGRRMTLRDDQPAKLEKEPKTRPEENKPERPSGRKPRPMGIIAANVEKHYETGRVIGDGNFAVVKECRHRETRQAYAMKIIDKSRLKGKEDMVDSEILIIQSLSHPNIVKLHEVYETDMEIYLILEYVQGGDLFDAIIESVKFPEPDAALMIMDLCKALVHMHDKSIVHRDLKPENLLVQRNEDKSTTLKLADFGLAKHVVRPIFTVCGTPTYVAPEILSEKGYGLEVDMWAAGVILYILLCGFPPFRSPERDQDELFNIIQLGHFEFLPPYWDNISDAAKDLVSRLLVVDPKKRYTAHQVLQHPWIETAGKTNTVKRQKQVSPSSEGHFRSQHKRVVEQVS

Phosphatidylinositol 4,5-bisphosphate 3-kinase catalytic subunit alpha isoform (Homo sapiens), P42336 [H1047L], sequence (P42336 whole entry H1047L, canonical isoform): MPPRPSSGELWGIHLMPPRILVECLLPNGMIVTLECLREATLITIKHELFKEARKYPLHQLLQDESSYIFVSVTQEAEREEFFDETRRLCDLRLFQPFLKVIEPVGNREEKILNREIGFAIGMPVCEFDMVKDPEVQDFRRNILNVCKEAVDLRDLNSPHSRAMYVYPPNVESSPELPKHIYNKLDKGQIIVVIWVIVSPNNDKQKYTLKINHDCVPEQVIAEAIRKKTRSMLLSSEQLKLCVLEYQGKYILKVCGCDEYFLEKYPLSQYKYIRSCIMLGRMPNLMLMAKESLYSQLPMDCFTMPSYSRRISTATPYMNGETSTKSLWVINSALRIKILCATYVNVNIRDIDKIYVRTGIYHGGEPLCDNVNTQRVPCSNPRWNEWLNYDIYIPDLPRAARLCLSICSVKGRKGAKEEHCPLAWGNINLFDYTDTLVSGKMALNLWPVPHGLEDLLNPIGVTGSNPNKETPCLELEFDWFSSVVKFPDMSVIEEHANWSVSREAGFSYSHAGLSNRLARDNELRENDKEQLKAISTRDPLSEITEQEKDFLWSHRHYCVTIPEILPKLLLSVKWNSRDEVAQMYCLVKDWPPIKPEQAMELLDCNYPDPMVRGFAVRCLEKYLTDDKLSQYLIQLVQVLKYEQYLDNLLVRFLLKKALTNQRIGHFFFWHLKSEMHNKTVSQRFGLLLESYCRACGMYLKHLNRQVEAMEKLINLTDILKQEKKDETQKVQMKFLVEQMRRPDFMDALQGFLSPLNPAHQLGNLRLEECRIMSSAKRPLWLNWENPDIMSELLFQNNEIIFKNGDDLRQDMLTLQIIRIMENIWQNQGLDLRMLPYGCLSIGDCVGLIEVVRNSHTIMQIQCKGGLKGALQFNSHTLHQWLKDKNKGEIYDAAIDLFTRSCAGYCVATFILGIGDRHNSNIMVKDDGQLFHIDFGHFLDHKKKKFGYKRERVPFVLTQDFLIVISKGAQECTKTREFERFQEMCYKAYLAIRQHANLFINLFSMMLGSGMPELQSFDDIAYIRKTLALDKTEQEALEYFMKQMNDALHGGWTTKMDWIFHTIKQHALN

| Structure (SMILES) | Activity [1] [%] | Activity [2] [%] | Activity (Homo sapiens) [%] | Activity [3] [%] | Activity [4] [%] | Activity [5] [%] | Activity [6] [%] | Activity [7] [%] | Activity [8] [%] | Activity [9] [%] |
| --- | --- | --- | --- | --- | --- | --- | --- | --- | --- | --- |
| COc1cc2ncnc(N[C@H](C)c3cccc4ccccc34)c2cc1OC | 92 | 82 | 82 | 100 | 98 | 100 | 100 | 100 | 100 | 100 |
| COc1cc2nc(C)nc(N[C@H](C)c3cccc(-c4cn[nH]c4)c3)c2cc1OC | 96 | 61 | 75 | 96 | 74 | 61 | 100 | 78 | 86 | 73 |
